From patent US11174250B2, “Substituted carboxamides as inhibitors of WDR5 protein-protein binding” (PROPELLON THERAPEUTICS INC., priority 2016, dated 2021)
Where two headings read alike, the source gives them in different places.

How the values were obtained:
[1] = biological target: MLL1-WRAD2 complex (Homo sapiens (Human), UniProt P61964); assay: MLL1-WRAD2 enzyme assay (in vitro methyl transferase assay); type: biochemical; details: MLL1-WRAD2 assay; read-out: In vitro MLL1 activity (IC50)
Protocol: Reaction was initiated with 1 μM 3H-SAM and incubated for 1 hour at 30° C. Reaction mixture was transferred to P81 filter-paper and washed with PBS before detection.

[2] = test system: MV4-11 cells; assay: Cell proliferation assay (ATPlite); type: cell-based; details: Homo sapiens, MV4-11, 120 h; MV-411 cells, five days; read-out: In vitro whole cell potency in MV-411 cells, (IC50)
Protocol: MV4-11 cells were seeded into a 96-well plate at 1,000 cells/well in 150 μl medium (Alpha-MEM containing 10% FBS, 100 μg/ml Normocin, and 50 μg/ml Gentamycin, Invitrogen). A HP D300 digital dispenser was used to dose cells with DMSO or test compounds across a 10-point range of concentrations (high dose of 10 μM), and cultures were grown in a humidified 5% CO2 incubator at 37° C. After five days, plates were removed from incubator and equilibrated to room temperature. An equal volume of ATPlite assay reagent was added to each well, and samples were processed according to manufacturer's instructions (Perkin Elmer). Luminescent signal was measured using an Envision plate reader equipped with a US-Luminescence detector.

[3] = biological target: WDR5 protein (Homo sapiens (Human), UniProt P61964); assay: Surface Plasmon Resonance (SPR) assay; type: binding; details: SPR; for residence time: τ=1/koff, read-out: Residence Time (t, min)
[4] = Table 1, read-out: WDR5 binding affinity (KD)
[5] = Table 2, read-out: WDR5 binding affinity SPR (KD)

Row | SMILES | IC50 [1] | IC50 [2] | Kd [3, 4] | Kd [3, 5] | residence time [3]
1 | CN1CCN(c2ccc(-c3ccc(OCC4CC4)nc3F)cc2NC(=O)c2c[nH]c(=O)cc2C(F)(F)F)CC1 [Example 16, N-(5-(6-(cyclopropylmethoxy)-2-fluoropyridin-3-yl)-2-(4-methylpiperazin-1-yl)phenyl)-6-oxo-4-(trifluoromethyl)-1,6-dihydropyridine-3-carboxamide] | 1.47 µM | 5.97 µM | 0.01 µM | 0.01 µM | 5.25 min
2 | C[C@@H]1CN(c2ccc(-c3cc(CN4CCOCC4)ccc3F)cc2NC(=O)c2c[nH]c(=O)cc2C(F)(F)F)C[C@H](C)N1C [Example 27, N-(2′-fluoro-5′-(morpholinomethyl)-4-((3S,5R)-3,4,5-trimethylpiperazin-1-yl)-[1,1′-biphenyl]-3-yl)-6-oxo-4-(trifluoromethyl)-1,6-dihydropyridine-3-carboxamide] | 0.529 µM | 0.737 µM | 0.008 µM | 0.008 µM | 5.84 min
3 | CN1CCN(c2ccc(-c3cc(OC4CCOCC4)ncc3F)cc2NC(=O)c2c[nH]c(=O)cc2C(F)(F)F)CC1 [Example 31, N-(5-(5-fluoro-2-((tetrahydro-2H-pyran-4-yl)oxy)pyridin-4-yl)-2-(4-methylpiperazin-1-yl)phenyl)-6-oxo-4-(trifluoromethyl)-1,6-dihydropyridine-3-carboxamide] | 1.74 µM | 1.28 µM | 0.009 µM | 0.009 µM | 5.76 min
4 | CN1CCN(c2ccc(-c3cc(C(=O)NC4CCCCC4)ccc3F)cc2NC(=O)c2c[nH]c(=O)cc2C(F)(F)F)CC1 [Example 32, N-(5′-(cyclohexylcarbamoyl)-2′-fluoro-4-(4-methylpiperazin-1-yl)-[1,1′-biphenyl]-3-yl)-6-oxo-4-(trifluoromethyl)-1,6-dihydropyridine-3-carboxamide] | 0.332 µM | 0.68 µM | 0.006 µM | 0.006 µM | 9.48 min
5 | CN1CCN(c2ccc(-c3cc(CNC4CCOCC4)ccc3F)cc2NC(=O)c2c[nH]c(=O)cc2C(F)(F)F)CC1 [Example 37, N-(2′-fluoro-4-(4-methylpiperazin-1-yl)-5′-(((tetrahydro-2H-pyran-4-yl)amino)methyl)-[,1′-biphenyl]-3-yl)-6-oxo-4-(trifluoromethyl)-1,6-dihydropyridine-3-carboxamide] | 1.3 µM | 2.91 µM | 0.005 µM | 0.006 µM | 4.38 min
6 | CN1CCN(c2ccc(-c3ccc(CN4CCOCC4)cc3F)cc2NC(=O)c2c[nH]c(=O)cc2C(F)(F)F)CC1 [Example 38, N-(2′-fluoro-4-(4-methylpiperazin-1-yl)-4′-(morpholinomethyl)-[1,1′-biphenyl]-3-yl)-6-oxo-4-(trifluoromethyl)-1,6-dihydropyridine-3-carboxamide] | 3.99 µM | > 10 µM | 0.008 µM | 0.008 µM | 3.42 min
7 | CN1CCN(c2ccc(-c3ccnc(N4CCOCC4)c3F)cc2NC(=O)c2c[nH]c(=O)cc2C(F)(F)F)CC1 [Example 39, N-(5-(3-fluoro-2-morpholinopyridin-4-yl)-2-(4-methylpiperazin-1-yl)phenyl)-6-oxo-4-(trifluoromethyl)-1,6-dihydropyridine-3-carboxamide] | 2.51 µM | > 10 µM | 0.028 µM | 0.028 µM | 1.46 min
8 | C[C@@H]1CN(c2ccc(-c3cc(CNC4CCCCC4)ccc3F)cc2NC(=O)c2c[nH]c(=O)cc2C(F)(F)F)C[C@H](C)N1C [Example 45, N-(5′-((cyclohexylamino)methyl)-2′-fluoro-4-((3S,5R)-3,4,5-trimethylpiperazin-1-yl)-[1,1′-biphenyl]-3-yl)-6-oxo-4-(trifluoromethyl)-1,6-dihydropyridine-3-carboxamide] | 0.514 µM | 0.074 µM | 0.002 µM | 0.002 µM | 31.9 min
9 | C[C@@H]1CN(c2ccc(-c3cc(C(=O)NC4CCCCC4)ccc3F)cc2NC(=O)c2c[nH]c(=O)cc2C(F)(F)F)C[C@H](C)N1C [Example 46, N-(5′-(cyclohexylcarbamoyl)-2′-fluoro-4-((3S,5R)-3,4,5-trimethylpiperazin-1-yl)-[1,1′-biphenyl]-3-yl)-6-oxo-4-(trifluoromethyl)-1,6-dihydropyridine-3-carboxamide] | 0.29 µM | 0.118 µM | 0.00095 µM | 0.00095 µM | 74.4 min

Results, then the compound that gave them:

Row | IC50 [1] | IC50 [2] | Kd [3, 4] | Kd [3, 5] | residence time [3] | SMILES
10 | 2.39 µM | 1.99 µM | 0.008 µM | 0.008 µM | 9.58 min | C[C@@H]1CN(c2ccc(-c3cc(C(=O)N4CCOCC4)ccc3F)cc2NC(=O)c2c[nH]c(=O)cc2C(F)(F)F)C[C@H](C)N1C [Example 47, N-(2′-fluoro-5′-(morpholine-4-carbonyl)-4-((3S,5R)-3,4,5-trimethylpiperazin-1-yl)-[1,1′-biphenyl]-3-yl)-6-oxo-4-(trifluoromethyl)-1,6-dihydropyridine-3-carboxamide]
11 | 1.57 µM | 2.24 µM | 0.007 µM | 0.007 µM | 3.89 min | CN1CCN(c2ccc(-c3cc(CN4CCOCC4)ccc3F)cc2NC(=O)c2c[nH]c(=O)cc2C(F)F)CC1 [Example 49, 4-(difluoromethyl)-N-(2′-fluoro-4-(4-methylpiperazin-1-yl)-5′-(morpholinomethyl)-[1,1′-biphenyl]-3-yl)-6-oxo-1,6-dihydropyridine-3-carboxamide]
12 | 1.79 µM | 0.943 µM | 0.004 µM | 0.004 µM | 12.6 min | C[C@@H]1CN(c2ccc(-c3cc(OCC4CC4)ncc3F)cc2NC(=O)c2c[nH]c(=O)cc2C(F)(F)F)C[C@H](C)N1C [Example 50, N-(5-(2-(cyclopropylmethoxy)-5-fluoropyridin-4-yl)-2-((3S,5R)-3,4,5-trimethylpiperazin-1-yl)phenyl)-6-oxo-4-(trifluoromethyl)-1,6-dihydropyridine-3-carboxamide]
13 | 5.63 µM | > 10 µM | > 0.2 µM | > 0.2 µM | – | CCN1CCN(c2ccc(-c3cc(CNC4CCCCC4)ccc3F)cc2NC(=O)c2c[nH]c(=O)cc2C(F)(F)F)CC1 [Example 63, N-(5′-((cyclohexylamino)methyl)-4-(4-ethylpiperazin-1-yl)-2′-fluoro-[1,1′-biphenyl]-3-yl)-6-oxo-4-(trifluoromethyl)-1,6-dihydropyridine-3-carboxamide]
14 | 1.1 µM | 1.13 µM | 0.0072 µM | 0.0072 µM | 3.79 min | CN1CCN(c2ccc(-c3cc(CN4CCN(CC5CC5)CC4)ccc3F)cc2NC(=O)c2c[nH]c(=O)cc2C(F)(F)F)CC1 [Example 66, N-(5′-((4-(cyclopropylmethyl)piperazin-1-yl)methyl)-2′-fluoro-4-(4-methylpiperazin-1-yl)-[1,1′-biphenyl]-3-yl)-6-oxo-4-(trifluoromethyl)-1,6-dihydropyridine-3-carboxamide]
15 | 1.15 µM | 0.292 µM | 0.0032 µM | 0.0032 µM | 8.8 min | CN1CCN(c2ccc(-c3cc(CN(C)C4CCCCC4)ccc3F)cc2NC(=O)c2c[nH]c(=O)cc2C(F)(F)F)CC1 [Example 67, N-(5′-((cyclohexyl(methyl)amino)methyl)-2′-fluoro-4-(4-methylpiperazin-1-yl)-[1,1′-biphenyl]-3-yl)-6-oxo-4-(trifluoromethyl)-1,6-dihydropyridine-3-carboxamide]
16 | 1.89 µM | 1.79 µM | 0.0077 µM | 0.0077 µM | 3.81 min | CN1CCN(c2ccc(-c3cc(CN4CCN(Cc5ccc(F)cc5)CC4)ccc3F)cc2NC(=O)c2c[nH]c(=O)cc2C(F)(F)F)CC1 [Example 68, N-(2′-fluoro-5′-((4-(4-fluorobenzyl)piperazin-1-yl)methyl)-4-(4-methylpiperazin-1-yl)-[,1′-biphenyl]-3-yl)-6-oxo-4-(trifluoromethyl)-1,6-dihydropyridine-3-carboxamide]
17 | 2.89 µM | > 10 µM | 0.0054 µM | 0.0054 µM | 2.36 min | CN1CCN(c2ccc(-c3cc(CN4CC[C@@H](O)C4)ccc3F)cc2NC(=O)c2c[nH]c(=O)cc2C(F)(F)F)CC1 [Example 69, (R)—N-(2′-fluoro-5′-((3-hydroxypyrrolidin-1-yl)methyl)-4-(4-methylpiperazin-1-yl)-[1,1′-biphenyl]-3-yl)-6-oxo-4-(trifluoromethyl)-1,6-dihydropyridine-3-carboxamide]
18 | 1.11 µM | 1.14 µM | 0.0044 µM | 0.0044 µM | 5.8 min | CN1CCN(c2ccc(-c3cc(CN4CCC(N5CCOCC5)CC4)ccc3F)cc2NC(=O)c2c[nH]c(=O)cc2C(F)(F)F)CC1 [Example 70, N-(2′-fluoro-4-(4-methylpiperazin-1-yl)-5′-((4-morpholinopiperidin-1-yl)methyl)-[1,1′-biphenyl]-3-yl)-6-oxo-4-(trifluoromethyl)-1,6-dihydropyridine-3-carboxamide]
